These results are taken from patent US8697721B2, “Chromen-2-one derivatives and their use as monoamine neurotransmitter re-uptake inhibitors” (Aniona APS, priority 2009, dated 2014).

Assay type in all cases: biochemical
The target in assay [1] is T1, dopamine (DA) reuptake in synaptosomes (Rattus norvegicus, UniProt P23977).
T1 construct: in synaptosomes as described in WO 97/16451; from tissue
The assay can be described thus: In vitro inhibition of 3H-DA reuptake in synaptosomes. The conditions noted are these: mean ± spread (n), read-out: DA-uptake IC50. As to the method: (§1) The compound was tested for its ability to inhibit the reuptake of the monoamine neurotransmitters dopamine (DA) noradrenaline (NA) and serotonine (5-HT) in synaptosomes as described in WO 97/16451.
(§2) The test values are given as IC50 (the concentration (μM) of the test substance which inhibits the specific binding of ^3H-DA, ^3H-NA, or ^3H-5-HT by 50%).

Assay [2] has as its target T2, noradrenaline (NA) reuptake in synaptosomes (Rattus norvegicus, UniProt Q63380).
T2 construct: in synaptosomes as described in WO 97/16451; from tissue
The assay can be described thus: In vitro inhibition of 3H-NA reuptake in synaptosomes. The settings on record: mean ± spread (n), read-out: NA-uptake IC50. As to the method: as §1, §2

For assay [3], the target named is T3, serotonine (5-HT) reuptake in synaptosomes (Rattus norvegicus, UniProt P31652).
T3 construct: in synaptosomes as described in WO 97/16451; from tissue
The assay can be described thus: In vitro inhibition of 3H-5-HT reuptake in synaptosomes. The settings on record: mean ± spread (n), read-out: 5-HT-uptake IC50. As to the method: as §1, §2

Counter-ions that a name gives are not always drawn.

T3 sequence (P31652 whole entry): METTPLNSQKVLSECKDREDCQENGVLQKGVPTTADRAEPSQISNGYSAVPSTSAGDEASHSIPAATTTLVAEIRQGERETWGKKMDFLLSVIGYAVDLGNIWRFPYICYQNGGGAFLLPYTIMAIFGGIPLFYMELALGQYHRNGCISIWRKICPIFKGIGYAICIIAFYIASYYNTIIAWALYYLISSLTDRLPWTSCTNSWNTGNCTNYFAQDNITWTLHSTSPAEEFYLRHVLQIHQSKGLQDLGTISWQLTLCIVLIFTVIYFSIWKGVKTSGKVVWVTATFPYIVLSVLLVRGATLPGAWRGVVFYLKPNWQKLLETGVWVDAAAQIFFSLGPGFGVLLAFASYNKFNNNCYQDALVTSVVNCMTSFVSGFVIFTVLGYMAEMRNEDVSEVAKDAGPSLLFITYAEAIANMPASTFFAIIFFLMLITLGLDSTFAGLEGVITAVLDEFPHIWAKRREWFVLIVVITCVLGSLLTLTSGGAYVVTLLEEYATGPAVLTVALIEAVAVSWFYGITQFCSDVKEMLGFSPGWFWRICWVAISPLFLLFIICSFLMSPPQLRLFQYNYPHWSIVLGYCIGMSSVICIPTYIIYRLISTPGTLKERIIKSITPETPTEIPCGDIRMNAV
T1 sequence (P23977 whole entry): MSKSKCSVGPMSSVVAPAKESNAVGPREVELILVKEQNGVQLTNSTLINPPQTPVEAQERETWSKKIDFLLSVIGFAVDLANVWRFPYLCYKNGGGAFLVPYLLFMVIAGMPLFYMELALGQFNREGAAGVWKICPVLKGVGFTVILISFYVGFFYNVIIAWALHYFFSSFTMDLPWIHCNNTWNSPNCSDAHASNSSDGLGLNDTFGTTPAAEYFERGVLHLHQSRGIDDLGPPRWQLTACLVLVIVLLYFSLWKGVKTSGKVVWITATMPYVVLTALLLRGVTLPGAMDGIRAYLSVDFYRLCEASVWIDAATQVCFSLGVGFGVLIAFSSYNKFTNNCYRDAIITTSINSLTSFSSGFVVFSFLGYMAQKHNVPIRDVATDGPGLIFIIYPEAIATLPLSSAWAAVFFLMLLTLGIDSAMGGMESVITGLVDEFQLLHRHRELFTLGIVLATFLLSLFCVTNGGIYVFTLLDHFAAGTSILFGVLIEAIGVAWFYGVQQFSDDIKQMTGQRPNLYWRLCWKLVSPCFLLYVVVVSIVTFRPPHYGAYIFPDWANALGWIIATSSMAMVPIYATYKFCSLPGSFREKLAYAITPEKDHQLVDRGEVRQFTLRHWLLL
T2 sequence (Q63380 1-617): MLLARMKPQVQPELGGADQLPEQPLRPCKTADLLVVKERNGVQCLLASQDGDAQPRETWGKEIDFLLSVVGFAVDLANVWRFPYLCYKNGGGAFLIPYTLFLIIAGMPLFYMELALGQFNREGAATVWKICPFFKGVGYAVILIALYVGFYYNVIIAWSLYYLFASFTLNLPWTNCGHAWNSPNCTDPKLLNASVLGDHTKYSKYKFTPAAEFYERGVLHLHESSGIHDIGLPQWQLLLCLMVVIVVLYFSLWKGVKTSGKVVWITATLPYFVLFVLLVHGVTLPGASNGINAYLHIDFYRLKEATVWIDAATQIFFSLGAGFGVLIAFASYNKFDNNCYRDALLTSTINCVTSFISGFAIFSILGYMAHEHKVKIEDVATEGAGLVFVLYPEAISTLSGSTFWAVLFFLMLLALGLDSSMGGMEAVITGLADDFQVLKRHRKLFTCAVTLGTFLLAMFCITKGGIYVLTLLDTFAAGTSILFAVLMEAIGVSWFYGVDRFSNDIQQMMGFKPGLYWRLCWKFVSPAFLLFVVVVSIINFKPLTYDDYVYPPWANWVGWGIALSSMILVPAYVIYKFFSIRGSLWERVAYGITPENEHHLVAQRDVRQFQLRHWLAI

On to `Cc1cc2ccc(O[C@@H]3C[C@H]4CC[C@@H](C3)N4)cc2oc1=O` [Compound 1.1, exo-7-[(8-Aza-bicyclo[3.2.1]oct-3-yl)oxy]-3-methyl-chromen-2-one hydrochloric Acid Salt], for which the IC50 in assay [1] worked out at 170 ± 21 nM; in assay [2], 11 ± 6.1 nM; in assay [3], 0.76 nM.

As a reminder, the IC50 is the concentration at which inhibition is half-maximal.
